Among the data in patent publication US12539292B2, “BRM targeting compounds and associated methods of use” (Arvinas Operations, Inc., priority 2018, dated 2026) are DC50 and Dmax values, retold here.

As a reminder, the DC50 is the concentration at which degradation of the target reaches its halfway point. In general, Dmax refers to the largest share of the target that was removed.

This test addresses T1, BRM (Homo sapiens, UniProt P51531).
T1 construct: In-Cell Western Screen of BRM Degradation in SW1573 Cells; endogenous in cells; host or cells: SW1573
Briefly: In-cell Western screen of BRM degradation in SW1573 cells (Dmax and DC50). Format: cell-based. As for the experimental part: In-Cell Western Screen of BRM Degradation in SW1573 Cells
To assess BRM degradation (Dmax and DC50), cells were seeded at 8000/well in 96-well black/clear-bottom plates in 180 μL DMEM growth media (containing 1% pen-strep, 1% HEPES and 10% FBS) per well. Plates were incubated overnight to allow adhesion. The next morning cells were treated by adding 20 μL of 10× compound (1% DMSO) to appropriate wells and returned to incubator for overnight (18-20 hours). The final DMSO concentration was 0.1%.
For processing, the plates were removed from incubator, the media was removed, and immediately 200 μL of cold (4° C.) DPBS was added to all wells. DPBS was then removed, and 50 μL of 4% paraformaldehyde (PFA) in DPBS (4° C.) was added to all wells, and the plates were incubated at room temperature for 20 minutes. PFA was then removed, and 200 μL of TBS-T containing 0.5% Triton X-100 was added to all wells, and the plates were incubated at room temperature for 30 minutes. TBS-T containing 0.5% Triton X-100 was then removed, and 50 μL of Li-Cor blocking solution was added, and the plates were incubated at room temperature for a minimum of one hour.
The next day plates were washed three times with TBS-T, 200 μL per well. Fifty (50) μL of secondary antibody cocktail in LI-COR blocking solution (anti-rabbit_800 nm and anti-mouse_680 nm) was added to all wells (diluted 1:5000). The plates were incubated at room temperature for at least one hour while protected from light. The plates were washed twice with TBS-T, 200 μL per well.
To read each plate TBS-T was removed, and each plate was inverted tapped on a paper towel. The plates were read on the LI-COR Odyssey with default intensity settings of 5.0 for both channels. LI-COR images were analyzed with the in-cell Western feature of Image Studio Lite.

Where [1] appears, read: BRM degradation, SW1573 cells, read-out: DC50.
Where [2] appears, read: BRM degradation, SW1573 cells, read-out: Dmax (% degraded).
Where [3] appears, read: BRM degradation, SW1573 cells, when tested at the top concentration of between 0.3 and 10 μM, read-out: Dmax (%) (% degraded).
[4] abbreviates: SW1573, % degraded, when tested at the top concentration of between 0.3 and 10 μM, read-out: BRM Dmax (%).
[5] abbreviates: target protein degradation, read-out: BRM DC50.

Where two headings read alike, the source gives them in different places.

T1 sequence (P51531 whole entry): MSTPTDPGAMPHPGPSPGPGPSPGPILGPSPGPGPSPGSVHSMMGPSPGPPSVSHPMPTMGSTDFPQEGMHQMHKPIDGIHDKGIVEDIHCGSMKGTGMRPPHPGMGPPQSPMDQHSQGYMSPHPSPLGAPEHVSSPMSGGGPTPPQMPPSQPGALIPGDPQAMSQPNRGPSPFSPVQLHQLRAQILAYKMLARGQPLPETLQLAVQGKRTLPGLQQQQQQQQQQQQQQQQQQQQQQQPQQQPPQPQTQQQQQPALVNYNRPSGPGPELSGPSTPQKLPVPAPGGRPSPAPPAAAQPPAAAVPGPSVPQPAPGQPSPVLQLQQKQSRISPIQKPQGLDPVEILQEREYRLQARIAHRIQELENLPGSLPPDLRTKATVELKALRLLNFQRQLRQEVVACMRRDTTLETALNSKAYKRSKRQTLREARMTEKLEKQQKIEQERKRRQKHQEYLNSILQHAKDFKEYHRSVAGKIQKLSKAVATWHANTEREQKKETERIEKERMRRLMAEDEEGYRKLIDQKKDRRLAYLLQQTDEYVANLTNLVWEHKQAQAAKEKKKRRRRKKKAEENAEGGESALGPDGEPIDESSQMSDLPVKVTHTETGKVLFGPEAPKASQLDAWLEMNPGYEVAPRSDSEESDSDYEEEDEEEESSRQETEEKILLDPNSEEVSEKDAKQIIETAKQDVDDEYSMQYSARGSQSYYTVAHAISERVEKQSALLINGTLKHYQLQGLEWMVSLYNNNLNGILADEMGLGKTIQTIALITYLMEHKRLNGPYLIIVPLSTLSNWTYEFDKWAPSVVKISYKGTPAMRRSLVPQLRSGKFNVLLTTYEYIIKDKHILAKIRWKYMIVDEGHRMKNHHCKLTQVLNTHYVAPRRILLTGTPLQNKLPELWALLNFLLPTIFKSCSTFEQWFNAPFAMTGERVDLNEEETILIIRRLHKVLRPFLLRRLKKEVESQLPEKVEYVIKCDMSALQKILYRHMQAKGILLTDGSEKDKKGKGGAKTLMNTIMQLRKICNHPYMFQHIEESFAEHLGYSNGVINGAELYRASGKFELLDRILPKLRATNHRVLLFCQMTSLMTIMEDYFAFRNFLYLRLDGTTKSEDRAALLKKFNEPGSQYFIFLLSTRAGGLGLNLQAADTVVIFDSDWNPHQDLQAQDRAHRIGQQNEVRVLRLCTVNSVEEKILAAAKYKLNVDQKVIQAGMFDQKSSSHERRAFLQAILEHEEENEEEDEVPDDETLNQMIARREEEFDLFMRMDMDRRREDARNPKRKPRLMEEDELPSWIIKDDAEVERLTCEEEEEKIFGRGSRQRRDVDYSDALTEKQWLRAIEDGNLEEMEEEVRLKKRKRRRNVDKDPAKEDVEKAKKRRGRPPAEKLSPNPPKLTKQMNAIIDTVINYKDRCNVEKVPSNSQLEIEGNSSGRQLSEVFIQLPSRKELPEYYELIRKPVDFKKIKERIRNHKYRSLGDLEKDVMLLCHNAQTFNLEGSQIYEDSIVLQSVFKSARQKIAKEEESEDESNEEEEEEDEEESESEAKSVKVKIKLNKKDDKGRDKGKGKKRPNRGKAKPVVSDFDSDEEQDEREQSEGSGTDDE

In the case of `Cc1nccn1-c1ccc([C@H](C)NC(=O)[C@@H]2C[C@@H](O)CN2C(=O)[C@@H](c2cc(N3CCC(CN4CCC(O[C@H]5C[C@H](C#C[C@@H](C)n6cc(-c7cc(-c8ccccc8O)nnc7N)cn6)C5)CC4)CC3)no2)C(C)C)cc1` (single isomer, unassigned) [compound 638], the DC50 under setting [1] is under 2.5 nM. Moreover, the Dmax under setting [2] is over 75%. For the molecule `CC(C)[C@H](C(=O)N1C[C@H](O)C[C@H]1C(=O)NCc1ccc(C2(F)CC2)cc1)c1cc(OCCN2CCC(O[C@H]3C[C@H](Oc4cc(N5C6CCC5CN(c5cc(-c7ccccc7O)nnc5N)C6)ccn4)C3)CC2)no1` [compound 418, (2S,4R)-1-((2S)-2-(3-(2-(4-((1r,3S)-3-((4-(3-(3-amino-6-(2-hydroxyphenyl)pyridazin-4-yl)-3,8-diazabicyclo[3.2.1]octan-8-yl)pyridin-2-yl)oxy)cyclobutoxy)piperidin-1-yl)ethoxy)isoxazol-5-yl)-3-methylbutanoyl)-N-(4-(1-fluorocyclopropyl)benzyl)-4-hydroxypyrrolidine-2-carboxamide], the DC50 (degradation of BRM, read-out: BRM DC50) is over 30 nM. As to `Cc1ncsc1-c1ccc([C@H](C)NC(=O)[C@@H]2C[C@@H](O)CN2C(=O)[C@@H](c2cc(OCCN3CCN(CCC#CCn4cc(-c5cc(-c6ccccc6O)nnc5N)cn4)CC3)no2)C(C)C)cc1` [compound 112, (2S,4R)-1-((R)-2-(3-(2-(4-(5-(4-(3-amino-6-(2-hydroxyphenyl)pyridazin-4-yl)-1H-pyrazol-1-yl)pent-3-yn-1-yl)piperazin-1-yl)ethoxy)isoxazol-5-yl)-3-methylbutanoyl)-4-hydroxy-N-((S)-1-(4-(4-methylthiazol-5-yl)phenyl)ethyl)pyrrolidine-2-carboxamide], the DC50 under setting [1] was under 2.5 nM. Besides, under setting [3], the Dmax is over 75%. Consider `Cc1ncsc1-c1ccc([C@H](C)NC(=O)[C@@H]2C[C@@H](O)CN2C(=O)[C@@H](c2cc(OC[C@@H]3C[C@H]3c3ccc(O[C@H]4C[C@H](Oc5cc(N6C7CCC6CN(c6cc(-c8ccccc8O)nnc6N)C7)ccn5)C4)cn3)no2)C(C)C)cn1` [compound 480, (2S,4R)-1-((2R)-2-(3-(((1R,2R)-2-(5-((1r,3R)-3-((4-(3-(3-amino-6-(2-hydroxyphenyl)pyridazin-4-yl)-3,8-diazabicyclo[3.2.1]octan-8-yl)pyridin-2-yl)oxy)cyclobutoxy)pyridin-2-yl)cyclopropyl)methoxy)isoxazol-5-yl)-3-methylbutanoyl)-4-hydroxy-N-((S)-1-(6-(4-methylthiazol-5-yl)pyridin-3-yl)ethyl)pyrrolidine-2-carboxamide], for which the Dmax under setting [4] is over 75%. For the same molecule, the half-maximal degradation concentration (DC50) under setting [5] was under 2.5 nM. With `Cc1ncsc1-c1ccc(CNC(=O)[C@@H]2C[C@@H](O)CN2C(=O)[C@@H](NC(=O)COCCOCCOCCOCCOCCOCCn2cc(-c3cc(-c4ccccc4O)nnc3N)cn2)C(C)(C)C)cc1` [compound 3, (2S,4R)-1-((S)-23-(4-(3-amino-6-(2-hydroxyphenyl)pyridazin-4-yl)-1H-pyrazol-1-yl)-2-(tert-butyl)-4-oxo-6,9,12,15,18,21-hexaoxa-3-azatricosanoyl)-4-hydroxy-N-(4-(4-methylthiazol-5-yl)benzyl)pyrrolidine-2-carboxamide], the half-maximal degradation concentration (DC50) under setting [1] was over 30 nM. Moreover, the Dmax under setting [3] is over 75%. As to `Cc1cnc(C)n1-c1ccc([C@H](C)NC(=O)[C@@H]2C[C@@H](O)CN2C(=O)[C@H](c2cc(OCCN3CCC(O[C@H]4C[C@H](Oc5cc(N6C7CCC6CN(c6cc(-c8ccccc8O)nnc6N)C7)ccn5)C4)CC3)no2)C(C)C)cc1` [compound 375, (2S,4R)-1-((2S)-2-(3-(2-(4-((1r,3S)-3-((4-(3-(3-amino-6-(2-hydroxyphenyl)pyridazin-4-yl)-3,8-diazabicyclo[3.2.1]octan-8-yl)pyridin-2-yl)oxy)cyclobutoxy)piperidin-1-yl)ethoxy)isoxazol-5-yl)-3-methylbutanoyl)-N-((S)-1-(4-(2,5-dimethyl-1H-imidazol-1-yl)phenyl)ethyl)-4-hydroxypyrrolidine-2-carboxamide], under setting [5], the DC50 is over 30 nM. In the case of `CC(C)[C@@H](C(=O)N1C[C@H](O)C[C@H]1C(=O)N[C@@H](C)c1ccc(-c2nncs2)cc1)c1cc(OCCN2CCC(O[C@H]3C[C@H](Oc4cc(N5C6CCC5CN(c5cc(-c7ccccc7O)nnc5N)C6)ccn4)C3)CC2)no1` [compound 364, (2S,4R)-N-((S)-1-(4-(1,3,4-thiadiazol-2-yl)phenyl)ethyl)-1-((2R)-2-(3-(2-(4-((1r,3R)-3-((4-(3-(3-amino-6-(2-hydroxyphenyl)pyridazin-4-yl)-3,8-diazabicyclo[3.2.1]octan-8-yl)pyridin-2-yl)oxy)cyclobutoxy)piperidin-1-yl)ethoxy)isoxazol-5-yl)-3-methylbutanoyl)-4-hydroxypyrrolidine-2-carboxamide], the Dmax under setting [4] was over 75%. Besides, the DC50 under setting [5] was over 30 nM. As for `COc1cc(-c2scnc2C)ccc1[C@H](C)NC(=O)[C@@H]1C[C@@H](O)CN1C(=O)[C@@H](c1cc(OCCN2CCC(O[C@H]3C[C@H](Oc4cc(N5C6CCC5CN(c5cc(-c7ccccc7O)nnc5N)C6)ccn4)C3)CC2)no1)C(C)C` [compound 202, (2S,4R)-1-((2R)-2-(3-(2-(4-((1r,3R)-3-((4-(3-(3-amino-6-(2-hydroxyphenyl)pyridazin-4-yl)-3,8-diazabicyclo[3.2.1]octan-8-yl)pyridin-2-yl)oxy)cyclobutoxy)piperidin-1-yl)ethoxy)isoxazol-5-yl)-3-methylbutanoyl)-4-hydroxy-N-((S)-1-(2-methoxy-4-(4-methylthiazol-5-yl)phenyl)ethyl)pyrrolidine-2-carboxamide], the DC50 under setting [1] was under 2.5 nM. Further, under “BRM degradation, SW1573 cells, tested at the top concentration of between 0.3 and 10 μM, read-out: Dmax (%) (% degraded)”, the Dmax was over 75%. On to `Cc1ncsc1-c1ccc([C@H](C)NC(=O)[C@@H]2C[C@@H](O)CN2C(=O)[C@@H](c2cc(N3CCC(CN4CCC([C@@H](C)n5cc(-c6cc(-c7ccccc7O)nnc6N)cn5)CC4)CC3)no2)C(C)C)cc1` (single isomer, unassigned) [compound 574], for which the Dmax (BRM degradation, SW1573 cells, Table 2D, read-out: **Dmax (%) (% degraded)) is over 75%. In addition, the 50% degradation concentration (DC50) (BRM degradation, SW1573 cells, Table 2D, read-out: *DC50) was under 2.5 nM.

Take `Cc1ncsc1-c1ccc([C@H](C)NC(=O)[C@@H]2C[C@@H](O)CN2C(=O)[C@@H](c2cc(N3CCC(CN4CCC(O[C@H]5C[C@H](Oc6cc(/C=C/c7cc(-c8ccccc8O)nnc7N)ccn6)C5)CC4)CC3)no2)C(C)C)cc1` [compound 626, (2S,4R)-1-((R)-2-(3-(4-((4-((1r,3r)-3-((4-((E)-2-(3-amino-6-(2-hydroxyphenyl)pyridazin-4-yl)vinyl)pyridin-2-yl)oxy)cyclobutoxy)piperidin-1-yl)methyl)piperidin-1-yl)isoxazol-5-yl)-3-methylbutanoyl)-4-hydroxy-N-((S)-1-(4-(4-methylthiazol-5-yl)phenyl)ethyl)pyrrolidine-2-carboxamide]: the DC50 under setting [1] was under 2.5 nM. For the same molecule, the Dmax under setting [2] was over 75%. Take `Cc1ncsc1-c1ccc([C@H](C)NC(=O)[C@@H]2C[C@@H](O)CN2C(=O)[C@@H](c2cc(OCCN3CCN(CCOc4cc(N5C6CCC5CN(c5cc(-c7ccccc7O)nnc5N)C6)ccn4)CC3)no2)C(C)C)cn1` [compound 116, (2S,4R)-1-((2R)-2-(3-(2-(4-(2-((4-(3-(3-amino-6-(2-hydroxyphenyl)pyridazin-4-yl)-3,8-diazabicyclo[3.2.1]octan-8-yl)pyridin-2-yl)oxy)ethyl)piperazin-1-yl)ethoxy)isoxazol-5-yl)-3-methylbutanoyl)-4-hydroxy-N-((S)-1-(6-(4-methylthiazol-5-yl)pyridin-3-yl)ethyl)pyrrolidine-2-carboxamide]: the DC50 under setting [1] was under 2.5 nM. For the same molecule, the Dmax under setting [3] is over 75%.

In the case of `Cc1ncsc1-c1ccc([C@H](C)NC(=O)[C@@H]2C[C@@H](O)CN2C(=O)[C@@H](c2cc(N3CCC(CN4CCC(O[C@H]5C[C@H](C#CC(C)N6CCOC7(CCN(c8cc(-c9ccccc9O)nnc8N)CC7)C6)C5)CC4)CC3)no2)C(C)C)cc1` (stereo partly drawn) [compound 707, (2S,4R)-1-((2R)-2-(3-(4-((4-((1r,3r)-3-(3-(9-(3-amino-6-(2-hydroxyphenyl)pyridazin-4-yl)-1-oxa-4,9-diazaspiro[5.5]undecan-4-yl)but-1-yn-1-yl)cyclobutoxy)piperidin-1-yl)methyl)piperidin-1-yl)isoxazol-5-yl)-3-methylbutanoyl)-4-hydroxy-N-((S)-1-(4-(4-methylthiazol-5-yl)phenyl)ethyl)pyrrolidine-2-carboxamide], the half-maximal degradation concentration (DC50) under setting [1] was under 2.5 nM. The maximal degradation (Dmax) under setting [2] was over 75%.
